Tested on: MCF7 human breast cancer cell line
Assay: Cytotoxic activity test, MTT method, MCF7 cells
Assay type: cell-based
Conditions: for inhibition rate: compound at 50 µM, dissolved in DMSO
Description: Dimethyl sulfoxide (DMSO) was used to dissolve the tested compounds.

| Substance | inhibition rate [%] | cytotoxic activity (in words) (preliminary in vitro test) |
| --- | --- | --- |
| neoantimycin D [Compound 5] | 91.08 | weak cytotoxic activity |
| neoantimycin E [Compound 6] | 90.53 |  |
